# Patent US9567347B2, “Use of small molecule inhibitors targeting the interaction between RAC GTPase and p67(phox)” (CHILDREN'S HOSPITAL MEDICAL CENTER, priority 2012, dated 2017)
# “Also recorded” adds a separate entry of the source.
# What was measured:
# [1] = target: T1, p67R38Q (Homo sapiens, UniProt P19878, R38Q); test: microscale thermophoresis binding to p67phox R38Q mutant; conditions: residue critical for Rac1-GTP binding
# T1 construct: using the pET30-HIS p67(1-212) plasmid; His; made in house; host or cells: E. coli BL21(DE3)
# T1 sequence (P19878 1-212 R38Q): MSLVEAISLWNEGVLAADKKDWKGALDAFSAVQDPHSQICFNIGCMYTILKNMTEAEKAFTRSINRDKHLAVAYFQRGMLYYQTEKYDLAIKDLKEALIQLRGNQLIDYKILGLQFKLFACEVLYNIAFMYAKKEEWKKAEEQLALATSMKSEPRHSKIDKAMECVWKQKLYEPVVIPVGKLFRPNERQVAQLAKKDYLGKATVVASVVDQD
# Procedure: The p67^phox protein was expressed in BL21(DE3) bacteria (Stratagene) using the pET30-HIS p67(1-212) plasmid. Protein was purified using the QIAexpress Ni-NTA kit (Qiagen) or the GST Bind Resin Chromatography Kit (Novagen) for RacV12 and RacWT proteins. Mutagenesis was carried out using the Quick Change Lightening Site Directed Mutagenesis Kit (Stratagene).
# Proteins were labeled for microscale thermophoresis using the Monolith NT Protein Labeling Kit Red (Nano Temper Technologies) as recommended by the manufacturer. Binding reactions were carried out using the Monolith NT. 115 (Nano Temper Technologies). Binding data was analyzed using Graphpad Prizm to estimate Kd values. The arbitrary fluorescence value from the thermophoresis plots for the smallest compound titration was subtracted from every other data point (Delta depletion) prior to normalization to a Vmax of 100. In thermophoresis plots where there was no binding, a curve could not be fit and therefore no Vmax could be assigned. In these instances the highest delta depletion value was set to 100 and all data were normalized accordingly.
# Next, to perform a competition binding, p67^phox protein was first incubated with either 5 μM Phox-I1 or an equal volume of vehicle control for 15 min prior to titration of purified Rac1V12 protein. […]
# [2] = target: T2, NOX4 (Homo sapiens, UniProt Q9NPH5); test: NOX4 mediated ROS production, luminol chemiluminescence with HRP; format: cell-based, mouse; conditions: 10 μM, 30 min
# T2 construct: expressed in transfected cells; host or cells: primary mouse neutrophils (C57Bl/6 bone marrow), Amaxa nucleofection
# T2 sequence (Q9NPH5 1-578): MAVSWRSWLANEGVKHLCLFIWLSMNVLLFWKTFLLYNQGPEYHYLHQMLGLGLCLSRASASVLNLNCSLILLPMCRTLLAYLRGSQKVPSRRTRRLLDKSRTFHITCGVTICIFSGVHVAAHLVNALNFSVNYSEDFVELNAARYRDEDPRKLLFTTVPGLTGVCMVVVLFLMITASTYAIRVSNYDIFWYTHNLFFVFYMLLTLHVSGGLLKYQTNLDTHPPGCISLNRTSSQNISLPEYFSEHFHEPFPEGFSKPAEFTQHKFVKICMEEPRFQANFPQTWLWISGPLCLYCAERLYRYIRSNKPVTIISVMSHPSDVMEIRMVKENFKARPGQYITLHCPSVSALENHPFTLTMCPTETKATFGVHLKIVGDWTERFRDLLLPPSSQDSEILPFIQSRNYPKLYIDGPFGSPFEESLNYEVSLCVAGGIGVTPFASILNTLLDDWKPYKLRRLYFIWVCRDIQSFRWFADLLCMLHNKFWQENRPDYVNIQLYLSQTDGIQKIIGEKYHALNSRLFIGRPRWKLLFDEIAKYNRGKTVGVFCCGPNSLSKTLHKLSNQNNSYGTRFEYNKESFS
# T2 sequence (Q61462 1-192 partner): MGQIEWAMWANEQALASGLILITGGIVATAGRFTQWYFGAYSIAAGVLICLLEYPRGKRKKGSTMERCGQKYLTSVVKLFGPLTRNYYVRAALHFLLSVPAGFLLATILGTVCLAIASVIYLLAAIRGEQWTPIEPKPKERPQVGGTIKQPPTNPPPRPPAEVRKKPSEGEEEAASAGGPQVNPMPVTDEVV
# Procedure: Primary mouse neutrophils were suspended in 100 μl NucleofectorR solution with 10 μg plasmid pCDNA3-NOX4 encoding NOX4 or mock vector. Cells were transfected using a Cell Line V NucleofactorTMR kit (Amaxa Biosystem, Amaxa Inc.) and the NucleofectorTM program Y-001. Cells were recovered at 37° C. for 2 hours and subjected to the luminol chemiluminescence assay using 10 μM L012 and HRP (0.005 U·mL^−1) to record ROS produced by NOX4 expression.
# Phox-I1 was then applied to primary murine neutrophils expressing the constitutively active NOX4. […] To further rule out that Phox-I1 and Phox-I2 may simply act as scavengers of ROS, dHL-60 cells were pre-stimulated with fMLP for 30 min prior to treatment with Phox-I1 or Phox-I2.
# [3] = target: T3, reconstituted NOX2 (Homo sapiens, UniProt P19878); test: cell-free superoxide production assay; format: biochemical; conditions: reconstitution conditions, FIG. 7
# T3 sequence (P19878 1-526): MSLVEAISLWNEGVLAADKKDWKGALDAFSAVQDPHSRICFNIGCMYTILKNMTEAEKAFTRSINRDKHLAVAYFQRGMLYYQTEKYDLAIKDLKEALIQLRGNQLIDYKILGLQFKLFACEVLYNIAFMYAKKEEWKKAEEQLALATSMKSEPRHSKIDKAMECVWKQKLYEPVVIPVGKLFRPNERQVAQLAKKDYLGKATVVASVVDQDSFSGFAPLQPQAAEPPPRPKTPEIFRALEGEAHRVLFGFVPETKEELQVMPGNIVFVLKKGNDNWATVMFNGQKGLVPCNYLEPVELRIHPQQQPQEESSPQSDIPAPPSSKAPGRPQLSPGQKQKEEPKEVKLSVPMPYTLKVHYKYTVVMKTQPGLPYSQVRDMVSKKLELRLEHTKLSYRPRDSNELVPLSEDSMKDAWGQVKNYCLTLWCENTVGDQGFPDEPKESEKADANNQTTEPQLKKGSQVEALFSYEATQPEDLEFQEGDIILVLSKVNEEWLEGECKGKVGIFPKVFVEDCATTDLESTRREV
# Procedure: In order to complement the in silico and cellular results, Phox-I1 and Phox-I2 were tested in cell-free superoxide production assays. Phox-I2 was added to p67 phox (50 nM) in a total volume of 200 μl, and incubated for 30 min at room temperature. A mixture of solubilized macrophage membrane (5 nM cytochrome b 558 heme), p47 phox (50 nM), and Rac1 GMPPNP (nonprenylated) (50 nm), were added. Lithium dodecyl sulfate (LiDS) was added at 130 μM and incubated for 90 sec at room temperature. NADPH was then added (238 μM) and superoxide production measured. In this system, a turnover of 58.88 mol superoxide/sec/mol cytochrome b558 heme was measured. The results were calculated by taking superoxide production in the absence of Phox-I2 as 100% and values obtained with Phox-I2 were expressed as % inhibition. The mean data represent those from six separate experiments.
Structure (SMILES),binding to p67^phox R38 mutant [1],NOX4 ROS production [2],Rac1-GMPPNP induced superoxide burst [3]
COc1ccc2c(c1)C1C=C(c3ccccc3)NN1C(c1cccc([N+](=O)[O-])c1)O2 (stereo not drawn) [Phox-I1],disrupted the binding ability,unresponsive,
O=[N+]([O-])c1cccc(C2Nc3ccc([N+](=O)[O-])cc3C3C=CCC32)c1 (stereo not drawn) [Phox-I2],,,dose-dependent inhibition; also recorded: dose-dependently inhibit
